From patent US7718808B2, “Thiazole derivatives” (Kyowa Hakko Kirin Co., Ltd., priority 2003, dated 2010)

melting point	Compound
220 to 232 °C (dec.)	COC1CCN(CC(=O)Nc2nc(-c3ccco3)c(C(=O)c3ccccn3)s2)CC1.Cl
180 to 185 °C	CCN(CC)C(=O)C1CCCN(CC(=O)Nc2nc(-c3ccco3)c(C(=O)c3ccccn3)s2)C1.Cl (centres unmarked)
170 to 188 °C	CN1CCN(CC(=O)Nc2nc(-c3ccco3)c(C(=O)c3ccccn3)s2)CC1=O.Cl
270 to 300 °C (dec.)	O=C(Nc1nc(-c2ccco2)c(-c2ccncc2)s1)c1ccc(F)cc1 [Compound 102, 4-Fluoro-N-[4-(2-furyl)-5-(4-pyridyl)thiazol-2-yl]benzamide]
235 to 245 °C	COc1ccc(C(=O)Nc2nc(-c3ccco3)c(-c3ccncc3)s2)cc1 [Compound 103, N-[4-(2-Furyl)-5-(4-pyridyl)thiazol-2-yl]-4-methoxybenzamide]
240 to 241 °C	CC(C)(C)C(=O)Nc1nc(-c2ccco2)c(-c2ccncc2)s1 [Compound 104, N-[4-(2-Furyl)-5-(4-pyridyl)thiazol-2-yl]-2,2-dimethylpropanamide]
285 to 288 °C	COc1cc(C(=O)Nc2nc(-c3ccco3)c(-c3ccncc3)s2)ccn1 [Compound 105, N-[4-(2-Furyl)-5-(4-pyridyl)thiazol-2-yl]-2-methoxypyridine-4-carboxamide]
239 to 250 °C	O=C(Nc1nc(-c2ccco2)c(-c2ccncc2)s1)c1ccnc(Cn2ccnc2)c1 [Compound 108, N-[4-(2-Furyl)-5-(4-pyridyl)thiazol-2-yl]-2-(imidazol-1-ylmethyl)pyridine-4-carboxamide]
203 to 205 °C	CN(C)CCN(C)Cc1cc(C(=O)Nc2nc(-c3ccco3)c(-c3ccncc3)s2)ccn1 [Compound 109, 2-{N-[2-(Dimethylamino)ethyl]-N-methylaminomethyl}-N-[4-(2-furyl)-5-(4-pyridyl)thiazol-2-yl]pyridine-4-carboxamide]
195 to 197 °C	COCCN(C)Cc1cc(C(=O)Nc2nc(-c3ccco3)c(-c3ccncc3)s2)ccn1 [Compound 110, N-[4-(2-Furyl)-5-(4-pyridyl)thiazol-2-yl]-2-[N-(2-methoxyethyl)-N-methylaminomethyl]pyridine-4-carboxamide]
203 to 208 °C	O=C(Nc1nc(-c2ccco2)c(-c2ccncc2)s1)c1ccnc(CN2CCC(O)CC2)c1 [Compound 111, N-[4-(2-Furyl)-5-(4-pyridyl)thiazol-2-yl]-2-(4-hydroxypiperidinomethyl)pyridine-4-carboxamide]
277 to 281 °C	O=C(Nc1nc(-c2ccco2)c(-c2ccncc2)s1)c1cc[nH]c(=O)c1 [Compound 112, N-[4-(2-Furyl)-5-(4-pyridyl)thiazol-2-yl]-2-oxo-1,2-dihydropyridine-4-carboxamide]
244 to 248 °C	O=C(Nc1nc(-c2ccco2)c(-c2ccncc2)s1)c1ccn(Cc2ccccc2)c(=O)c1 [Compound 113, 1-Benzyl-N-[4-(2-furyl)-5-(4-pyridyl)thiazol-2-yl]-2-oxo-1,2-dihydropyridine-4-carboxamide]
90 to 98 °C	COc1ccc(-c2sc(NC(=O)c3ccccc3)nc2-c2ccco2)cc1 [Compound 119, N-[4-(2-Furyl)-5-(4-methoxyphenyl)thiazol-2-yl]benzamide]
280 to 282 °C	Cn1ccc(-c2sc(NC(=O)c3ccncc3)nc2-c2ccco2)cc1=O [Compound 123, N-[4-(2-Furyl)-5-(1-methyl-2-oxo-1,2-dihydropyridine-4-yl)thiazol-2-yl]pyridine-4-carboxamide]
245 to 248 °C	CCn1ccc(-c2sc(NC(=O)c3ccncc3)nc2-c2ccco2)cc1=O [Compound 124, N-[5-(1-Ethyl-2-oxo-1,2-dihydropyridin-4-yl)-4-(2-furyl)thiazol-2-yl]pyridine-4-carboxamide]
137 to 140 °C	O=C(Nc1nc(-c2ccco2)c(-c2ccn(Cc3ccccc3)c(=O)c2)s1)c1ccncc1 [Compound 125, N-[5-(1-Benzyl-2-oxo-1,2-dihydropyridin-4-yl)-4-(2-furyl)thiazol-2-yl]pyridine-4-carboxamide]
294 to 295 °C	Cn1cc(-c2sc(NC(=O)c3ccncc3)nc2-c2ccco2)ccc1=O [Compound 126, N-[4-(2-Furyl)-5-(1-methyl-2-oxo-1,2-dihydropyridin-5-yl)thiazol-2-yl]pyridine-4-carboxamide]
285 to 289 °C	CCn1cc(-c2sc(NC(=O)c3ccncc3)nc2-c2ccco2)ccc1=O [Compound 127, N-[5-(1-Ethyl-2-oxo-1,2-dihydropyridin-5-yl)-4-(2-furyl)thiazol-2-yl]pyridine-4-carboxamide]
215 to 218 °C	O=C(Nc1nc(-c2ccco2)c(-c2ccc(=O)n(Cc3ccccc3)c2)s1)c1ccncc1 [Compound 128, N-[5-(1-Benzyl-2-oxo-1,2-dihydropyridin-5-yl)-4-(2-furyl)thiazol-2-yl]pyridine-4-carboxamide]
> 300 °C	CCn1c(-c2sc(NC(=O)c3ccncc3)nc2-c2ccco2)cccc1=O [Compound 129, N-[5-(1-Ethyl-6-oxo-1,6-dihydropyridin-2-yl)-4-(2-furyl)thiazol-2-yl]pyridine-4-carboxamide]
235 to 239 °C	CCn1nc(-c2sc(NC(=O)c3ccncc3)nc2-c2ccco2)ccc1=O [Compound 130, N-[5-(1-Ethyl-6-oxo-1,6-dihydropyridazin-3-yl)-4-(2-furyl)thiazol-2-yl]pyridine-4-carboxamide]
153 to 154 °C	CC(C)(O)C(=O)Nc1nc(-c2ccco2)c(C(=O)c2ccccc2)s1 [Compound 137, N-[5-Benzoyl-4-(2-furyl)thiazol-2-yl]-2-hydroxy-2-methylpropanamide]
202 to 205 °C	O=C(c1ccccc1)c1sc(NC(=O)C2(O)CC2)nc1-c1ccco1 [Compound 138, N-[5-Benzoyl-4-(2-furyl)thiazol-2-yl]-1-hydroxycyclopropanecarboxamide]
205 to 209 °C	CN(C)Cc1cc(C(=O)Nc2nc(-c3ccco3)c(C(=O)c3ccccc3)s2)ccn1 [Compound 141, N-[5-Benzoyl-4-(2-furyl)thiazol-2-yl]-2-(dimethylaminomethyl)pyridine-4-carboxamide]
212 to 213 °C	O=C(Nc1nc(-c2ccco2)c(C(=O)c2ccccc2)s1)c1ccnc(CN2CCOCC2)c1 [Compound 144, N-[5-Benzoyl-4-(2-furyl)thiazol-2-yl]-2-(morpholinomethyl)pyridine-4-carboxamide]
145 to 147 °C	COCCN(C)c1cc(C(=O)Nc2nc(-c3ccco3)c(C(=O)c3ccccc3)s2)ccn1 [Compound 145, N-[5-Benzoyl-4-(2-furyl)thiazol-2-yl]-2-[N-(2-methoxyethyl)-N-methylamino]pyridine-4-carboxamide]
195 to 198 °C	O=C(Nc1nc(-c2ccco2)c(C(=O)c2ccccc2)s1)c1ccnc(N2CCCCC2)c1 [Compound 146, N-[5-Benzoyl-4-(2-furyl)thiazol-2-yl]-2-piperidinopyridine-4-carboxamide]
220 to 225 °C	Cn1cc(C(=O)Nc2nc(-c3ccco3)c(C(=O)c3ccccc3)s2)ccc1=O [Compound 150, N-[5-Benzoyl-4-(2-furyl)thiazol-2-yl]-1-methyl-2-oxo-1,2-dihydropyridine-5-carboxamide]
